According to PubChem BioAssay AID2060513 (Molecular Pharmacology Branch, DTP, NCI, 2025):
Several values for one entry are separate records, joined by “and”; a condition that tells them apart may be missing. Equal entries are not always repeated.

Tested on: 299254-011-R-J1-PDC complex spheroids viability
Test: Anticancer human tumor 299254-011-R-J1-PDC patient-derived melanoma cell line growth inhibition [GQUAD]
Conditions: for viability, T/C: stronger effect = lower value
Excerpt: DNA G-quadruplex Stabilizer Agents in Combinations in Complex Spheroids
A high-throughput screen of multi-cell type tumor spheroids was designed to identify active combinations of DNA G-quadruplex stabilizer agents and targeted small molecules. Complex spheroids include a stromal component modeled by human endothelial cells (HUVEC) and fibroblasts modeled by human mesenchymal stem cells (MSCs). The concentration ranges selected for each drug and investigational agent were based upon clinically achievable concentrations if the clinical Cmax of the agent was known.
Compounds. The drugs and investigational agents: pidnarulex (CX-5461; NSC782164), APTO-253 (NSC789042), BRACO-19 (NSC847499), peposertib (NSC802822), ceralasertib (NSC780249), elimusertib (NSC800525), camonsertib (NSC841442), AZD-1390 (NSC803789), olaparib (NSC753686), talazoparib (NSC767125), ART-558 (NSC835418), sotorasib (NSC818433), MRTX-1133 (NSC836407), SN-38 (NSC673596), topotecan (NSC609699), etoposide (NSC141540), doxorubicin (NSC123127), gemcitabine (NSC613327), 5-fluorouracil (NSC19893), paclitaxel (NSC125973), vemurafenib (NSC761431), panobinostat (NSC761190), R-306465 (JNJ-16241199; NSC773264), adavosertib (NSC754352), TP-3654 (NSC805149), carboplatin (NSC241240), KSQ-4279 (NSC840948), and staurosporine (NSC755774) were obtained from the National Cancer Institute (NCI) Developmental Therapeutics Program Chemical Repository (34). The FDA-approved anticancer drug set is available from the NCI Developmental Therapeutics Program. […] The stock solutions were prepared in dimethyl sulfoxide (DMSO, Sigma-Aldrich, St. Louis, MO, cat. D2650) at 800-fold the tested concentration and stored at -70 degrees C prior to their use. All drugs and investigational agents were tested over a range starting from a high concentration at or near the clinical Cmax and decreasing in half-log increments. If the clinical Cmax for an agent had not been determined, the highest concentration tested was 10 microM.
2.3 Cell Culture. All cells were maintained in an incubator at 37 degrees C and 5% CO2 with 95% humidity. The PDC lines were cultured according to standard operating procedures established by the NCI PDMR. All PDCs were thawed and cultured in Matrigel-coated flasks prepared with a working solution of 1X Ham's F-12 nutrient mix, without supplementation (Invitrogen, cat. 11765054), 100 U/mL penicillin-streptomycin (Invitrogen, cat. 15140122), and 2.5% Matrigel (Corning Inc., cat. 354248) for the first three passages. The 857933-349-R-J2-PDC line was cultured in 6C/Colon 1B media, which includes advanced DMEM/F-12 (Thermo Fisher Scientific, cat. 12634028), 10 mM HEPES (Thermo Fisher Scientific, cat. 15630080), 1X GlutaMAX supplement (Thermo Fisher Scientific, cat. 35050061), 0.1 mg/mL primocin (InvivoGen, cat. ant-pm-2), 10% defined fetal bovine serum, heat inactivated (HyClone Laboratories Inc., cat. SH30070.03HI), 50% L-WRN conditioned media (ATCC, cat. CRL-3276), 1.25 mM N-Acetyl-L-cysteine (Sigma-Aldrich, cat. A9165), 10 mM nicotinamide (Sigma-Aldrich, cat. N0636), 1X B-27 supplement (Thermo Fisher Scientific, cat. 17504044), 1X N-2 supplement (Thermo Fisher Scientific, cat. 17502048), 10 microM Y-27632 dihydrochloride (Tocris Bioscience, cat. 1254), and 50 ng/mL human EGF recombinant protein (Thermo Fisher Scientific, cat. PHG0311). The 485176-168-R4-J1-PDC line was cultured in Panc media, which includes all 6C/Colon 1B media components plus 100 ng/mL human FGF-10 (Thermo Fisher Scientific, cat. 100-26), 500 nM SB-431542 (Selleckchem, cat. S1067), and gastrin (Tocris, cat. 3006).
[…]
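Further: spheroids exposed to the agents for seven days before readout.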
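Wherever viability, T/C is given: percent viability relative to DMSO vehicle control wells = 100%.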

With CC1COCCN1c1cc(C2(O)CC3CCC(C2)O3)c2cnn(-c3ccn[nH]3)c2n1 (stereo not given) the viability, T/C (compound 0.0316 µM) was 116% and 87.6% and 93.3%, the viability, T/C (compound 0.1 µM) was 42.7% and 48.7% and 67.2% and the viability, T/C (compound 0.316 µM) was 23.7% and 29.9% and 29.5%. For the same compound, the viability, T/C (compound 1 µM) was 12.7% and 12.4% and 18.8%, the viability, T/C (compound 3.16 µM) was 10.2% and 10.5% and 10.9% and the viability, T/C (compound 10 µM) was 4.19% and 8.01% and 5.02%. For the same compound, the IC50 (curve of compound) was 0.0926 µM and 0.0992 µM and 0.173 µM.
With Cn1ncnc1[C@H]1c2n[nH]c(=O)c3cc(F)cc(c23)N[C@@H]1c1ccc(F)cc1 the viability, T/C (compound 0.000999 µM) was 105% (2×) and 104%, the viability, T/C (compound 0.00316 µM) was 103% and 101% and 89.8% and the viability, T/C (compound 0.00999 µM) was 92.7% and 94.7% and 116%. For the same compound, the viability, T/C (compound 0.0316 µM) was 107% and 106% and 84.5%, the viability, T/C (compound 0.0999 µM) was 88.5% and 94.8% and 95.9% and the viability, T/C (compound 0.316 µM) was 125% and 105% and 92.4%. It also gave an IC50 (curve of compound) greater than 0.316 µM.
In the case of COc1cccc2c1C(=O)c1c(O)c3c(c(O)c1C2=O)CC(O)(C(=O)CO)CC3OC1CC(N)C(O)C(C)O1 (stereo not given), the viability, T/C (compound 0.0316 µM) is reported as 107% and 92.6% and 98%, the viability, T/C (compound 0.1 µM) is reported as 99.6% and 107% and 89.3% and the viability, T/C (compound 0.316 µM) is reported as 88.1% and 81.5% and 113%. For the same compound, the viability, T/C (compound 1 µM) was 75.9% and 86.5% and 81.4%, the viability, T/C (compound 3.16 µM) was 60.2% and 77% and 70.5% and the viability, T/C (compound 10 µM) was 21.2% and 28% and 20.3%. For the same compound, the IC50 (curve of compound) was 3.89 µM and 5.82 µM and 4.94 µM.
With COc1ncnc(C2CC2)c1-c1ncc2cnn(Cc3ccc(-c4nc(C(F)(F)F)cn4C(C)C)cc3)c2n1 the viability, T/C (compound 0.0316 µM) was 105% and 110% and 90.2%, the viability, T/C (compound 0.1 µM) was 115% and 110% and 86.3% and the viability, T/C (compound 0.316 µM) was 95.2% and 96.1% and 84.1%. For the same compound, the viability, T/C (compound 1 µM) was 102% (2×) and 85%, the viability, T/C (compound 3.16 µM) was 107% and 93.2% and 89.6% and the viability, T/C (compound 10 µM) was 82.6% and 87.6% and 91.8%. It also gave an IC50 (curve of compound) greater than 10 µM.
Work on Cc1cccc(N(C)C(=O)C2C(O)CCN2c2nc(C)cc(C(F)(F)F)c2C#N)c1 (stereo not given) + Cc1[nH]c2ccc(F)cc2c1-c1nc2c3cccnc3c3ncccc3c2[nH]1 yielded an IC50 (curve of first compound, second compound 0.0316 µM) greater than 10 µM, an IC50 (curve of first compound, second compound 0.1 µM) greater than 10 µM and an IC50 (curve of first compound, second compound 0.316 µM) greater than 10 µM. For the same compound, the IC50 (curve of first compound, second compound 1 µM) was greater than 10 µM, the IC50 (curve of first compound, second compound 3.16 µM) was greater than 10 µM and the IC50 (curve of first compound, second compound 10 µM) was greater than 10 µM. For the same compound, the viability, T/C (second compound 0.0316 µM, first compound 0.0316 µM) was 104%, the viability, T/C (second compound 0.0316 µM, first compound 0.1 µM) was 104% and the viability, T/C (second compound 0.0316 µM, first compound 0.316 µM) was 112%. It also gave a viability, T/C (second compound 0.0316 µM, first compound 1 µM) of 90%, a viability, T/C (second compound 0.0316 µM, first compound 3.16 µM) of 82.1% and a viability, T/C (second compound 0.0316 µM, first compound 10 µM) of 90.6%. For the same compound, the viability, T/C (second compound 0.1 µM, first compound 0.0316 µM) was 86.7%, the viability, T/C (second compound 0.1 µM, first compound 0.1 µM) was 95.2% and the viability, T/C (second compound 0.1 µM, first compound 0.316 µM) was 92.1%. It also gave a viability, T/C (second compound 0.1 µM, first compound 1 µM) of 77.5%, a viability, T/C (second compound 0.1 µM, first compound 3.16 µM) of 90.4% and a viability, T/C (second compound 0.1 µM, first compound 10 µM) of 112%. For the same compound, the viability, T/C (second compound 0.316 µM, first compound 0.0316 µM) was 114%, the viability, T/C (second compound 0.316 µM, first compound 0.1 µM) was 114% and the viability, T/C (second compound 0.316 µM, first compound 0.316 µM) was 100%. The viability, T/C (second compound 0.316 µM, first compound 1 µM) was 88.5%, the viability, T/C (second compound 0.316 µM, first compound 3.16 µM) was 137% and the viability, T/C (second compound 0.316 µM, first compound 10 µM) was 82.8%. For the same compound, the viability, T/C (second compound 1 µM, first compound 0.0316 µM) was 109%, the viability, T/C (second compound 1 µM, first compound 0.1 µM) was 85.7% and the viability, T/C (second compound 1 µM, first compound 0.316 µM) was 83.9%. It also gave a viability, T/C (second compound 1 µM, first compound 1 µM) of 109%, a viability, T/C (second compound 1 µM, first compound 3.16 µM) of 103% and a viability, T/C (second compound 1 µM, first compound 10 µM) of 102%. The viability, T/C (second compound 3.16 µM, first compound 0.0316 µM) was 91.3%, the viability, T/C (second compound 3.16 µM, first compound 0.1 µM) was 122% and the viability, T/C (second compound 3.16 µM, first compound 0.316 µM) was 91.4%. The viability, T/C (second compound 3.16 µM, first compound 1 µM) was 98.6%, the viability, T/C (second compound 3.16 µM, first compound 3.16 µM) was 116% and the viability, T/C (second compound 3.16 µM, first compound 10 µM) was 94.5%. The viability, T/C (second compound 10 µM, first compound 0.0316 µM) was 93.8%, the viability, T/C (second compound 10 µM, first compound 0.1 µM) was 116% and the viability, T/C (second compound 10 µM, first compound 0.316 µM) was 103%. It also gave a viability, T/C (second compound 10 µM, first compound 1 µM) of 89.5%, a viability, T/C (second compound 10 µM, first compound 3.16 µM) of 84.9% and a viability, T/C (second compound 10 µM, first compound 10 µM) of 84.1%.
